Measured values published in patent publication US11419855B2, “Pharmaceutical preparation” (KOWA COMPANY, LTD., priority 2017, dated 2022).

Tests used:
[1] = Examination of stability of pemafibrate, stored alone in open state in dish (HPLC related substances); assay type: physicochemical
Procedure: 250 mg of pemafibrate was placed in a dish, and stored in an uncapped state (open state) in a dark place at 40° C. and 75% relative humidity (RH) for 3 months.
The amounts of pemafibrate-derived decomposition products (related substances) before the start of storage and after storage at 40° C. and 75% RH for 3 months were evaluated through the following method.
The sum of related substance-derived peak areas was evaluated in terms of a ratio (%) to the pemafibrate-derived peak area using an HPLC apparatus, and the ratio was defined as the “Total amount (%) of related substances”.

[2] = Hygroscopic property evaluation of pemafibrate crystal (Karl Fischer moisture content); assay type: physicochemical
Procedure: A pemafibrate crystal was produced by recrystallizing pemafibrate from an ethyl acetate/heptane mixture in accordance with the method for producing a pemafibrate crystal as described in Non-Patent Document 1.
250 mg of the pemafibrate crystal was placed in a dish, and stored in an uncapped state (open state) in a dark place at 25° C. and 83% relative humidity (RH) for 3 months. The hygroscopic property was evaluated by measuring the moisture contents before and after the storage. The measurement of the moisture content was performed by a coulometric titration method in accordance with The Japanese Pharmacopoeia, 17th Edition, Moisture Content Measurement Method (Karl Fischer Method).

| Stability at high humidity ([1]; 75% RH, storage for 3 months, in words) | Total amount (%) of related substances, before storage ([1]; before storage, HPLC ratio of related substance peak areas to pemafibrate peak area) | Total amount (%) of related substances, after storage at 40° C. and 75% RH for 3 months ([1]; open state in dish, dark place, 40° C., 75% RH, 3 months) | Moisture content (%), before storage ([2]; before storage, Karl Fischer coulometric titration) | Moisture content (%), after storage at 25° C. and 83% RH for 3 months ([2]; open state in dish, dark place, 25° C., 83% RH, 3 months) | Hygroscopic property ([2]; storage at 83% RH for 3 months, in words) | Structure (SMILES) |
| --- | --- | --- | --- | --- | --- | --- |
| stable | <0.05% | <0.05% |  |  |  | CC[C@@H](Oc1cccc(CN(CCCOc2ccc(OC)cc2)c2nc3ccccc3o2)c1)C(=O)O [Pemafibrate, (2R)-2-[3-([1,3-Benzoxazol-2-yl[3-(4-methoxyphenoxy)propyl]amino]methyl)phenoxy]butanoic acid] |
|  |  |  | <0.1% | <0.1% | not hygroscopic | CC[C@@H](Oc1cccc(CN(CCCOc2ccc(OC)cc2)c2nc3ccccc3o2)c1)C(=O)O [Pemafibrate crystal, (2R)-2-[3-([1,3-Benzoxazol-2-yl[3-(4-methoxyphenoxy)propyl]amino]methyl)phenoxy]butanoic acid] |
